According to ChEMBL document CHEMBL3751674, “Synthesis, antimicrobial activity of Schiff base compounds of cinnamaldehyde and amino acids” (2016):

What was measured:
Type in all cases: functional
Conditions in all cases: read-out: DIZ
[1] = tested on: Penicillium citrinum; assay: Antifungal activity against Penicillium citrinum at 0.03 mol/L after 2 to 4 days by paper disc method
[2] = tested on: Escherichia coli; assay: Antibacterial activity against Escherichia coli at 0.03 mol/L after 12 to 24 hrs by paper disc method
[3] = tested on: Aspergillus niger; assay: Antifungal activity against Aspergillus niger at 0.13 mol/L after 2 to 4 days by paper disc method
[4] = tested on: Aspergillus niger; assay: Antifungal activity against Aspergillus niger at 0.06 mol/L after 2 to 4 days by paper disc method
[5] = tested on: Staphylococcus aureus; assay: Antibacterial activity against Staphylococcus aureus at 0.25 mol/L after 12 to 24 hrs by paper disc method
[6] = tested on: Penicillium citrinum; assay: Antifungal activity against Penicillium citrinum at 0.25 mol/L after 2 to 4 days by paper disc method
[7] = tested on: Staphylococcus aureus; assay: Antibacterial activity against Staphylococcus aureus at 0.06 mol/L after 12 to 24 hrs by paper disc method
[8] = tested on: Penicillium citrinum; assay: Antifungal activity against Penicillium citrinum at 0.06 mol/L after 2 to 4 days by paper disc method
[9] = tested on: Penicillium citrinum; assay: Antifungal activity against Penicillium citrinum at 0.13 mol/L after 2 to 4 days by paper disc method
[10] = tested on: Aspergillus niger; assay: Antifungal activity against Aspergillus niger at 0.03 mol/L after 2 to 4 days by paper disc method
[11] = tested on: Escherichia coli; assay: Antibacterial activity against Escherichia coli at 0.06 mol/L after 12 to 24 hrs by paper disc method
[12] = tested on: Staphylococcus aureus; assay: Antibacterial activity against Staphylococcus aureus at 0.13 mol/L after 12 to 24 hrs by paper disc method
[13] = tested on: Staphylococcus aureus; assay: Antibacterial activity against Staphylococcus aureus at 0.03 mol/L after 12 to 24 hrs by paper disc method
[14] = tested on: Escherichia coli; assay: Antibacterial activity against Escherichia coli at 0.25 mol/L after 12 to 24 hrs by paper disc method
[15] = tested on: Escherichia coli; assay: Antibacterial activity against Escherichia coli at 0.13 mol/L after 12 to 24 hrs by paper disc method
[16] = tested on: Aspergillus niger; assay: Antifungal activity against Aspergillus niger at 0.25 mol/L after 2 to 4 days by paper disc method

Row | SMILES | zone of inhibition at 30000 µM [1] | zone of inhibition at 30000 µM [2] | zone of inhibition at 130000 µM [3] | zone of inhibition at 60000 µM [4] | zone of inhibition at 250000 µM [5] | zone of inhibition at 250000 µM [6] | zone of inhibition at 60000 µM [7] | zone of inhibition at 60000 µM [8] | zone of inhibition at 130000 µM [9] | zone of inhibition at 30000 µM [10] | zone of inhibition at 60000 µM [11] | zone of inhibition at 130000 µM [12] | zone of inhibition at 30000 µM [13] | zone of inhibition at 250000 µM [14] | zone of inhibition at 130000 µM [15] | zone of inhibition at 250000 µM [16]
1 | CC(/N=C/C=C/c1ccc(Cl)cc1)C(=O)O (stereo not given) | 17.3 mm | 12 mm | 24.7 mm | 19.3 mm | 33.7 mm | 30.3 mm | 10.5 mm | 24.7 mm | 26.3 mm | 13.8 mm | 11.5 mm | 33.5 mm | 8.7 mm | 12.2 mm | 12.5 mm | 26.7 mm
2 | O=C(O)[C@H](Cc1ccc(O)cc1)/N=C/C=C/c1ccc(Cl)cc1 | 11.5 mm | 13.7 mm | 15.7 mm | 15.5 mm | 19.3 mm | 25 mm | 11.7 mm | 15.7 mm | 23.5 mm | 12.3 mm | 15.7 mm | 12.7 mm | 9.7 mm | 17.8 mm | 12 mm | 29.7 mm
3 | O=C(O)CC[C@H](/N=C/C=C/c1ccc(Cl)cc1)C(=O)O | 17 mm | 15.7 mm | 23.3 mm | 17.3 mm | 31 mm | 35 mm | 10.5 mm | 18.7 mm | 23 mm | 17.7 mm | 12 mm | 20 mm | 8.3 mm | 18.3 mm | 17.3 mm | 21 mm
4 | O=C(O)C[C@H](/N=C/C=C/c1ccc(Cl)cc1)C(=O)O | 24.5 mm | 8 mm | 15.7 mm | 19.3 mm | 30.3 mm | 32.3 mm | 8.5 mm | 25 mm | 23.3 mm | 14.3 mm | 13 mm | 18.3 mm | 9.2 mm | 25.2 mm | 12 mm | 29 mm
5 | COc1ccc(/C=C/C=N/[C@@H](Cc2ccc(O)cc2)C(=O)O)cc1 | 10.8 mm | 12 mm | 14.7 mm | 13.8 mm | 8.5 mm | 24 mm | 8 mm | 19 mm | 16.5 mm | 10.3 mm | 8.3 mm | 8.7 mm | 8 mm | 18 mm | 12.3 mm | 19.5 mm
6 | O=C(O)C/N=C/C=C/c1ccc(Cl)cc1 | 16.3 mm | 19.3 mm | 23 mm | 21.7 mm | 22.2 mm | 25 mm | 8 mm | 20.3 mm | 21.7 mm | 12 mm | 21.7 mm | 9.7 mm | 12.3 mm | 22.8 mm | 18.2 mm | 23.7 mm
7 | CC(C)C[C@H](/N=C/C=C/c1ccccc1)C(=O)O | 8.5 mm | 8 mm | 9.8 mm | 8 mm | 8 mm | 10.5 mm | 8.2 mm | 9.3 mm | 9 mm | 8 mm | 8 mm | 8 mm | 8 mm | 10 mm | 8.3 mm | 16.3 mm
8 | O=C(O)CC[C@H](/N=C/C=C/c1ccccc1)C(=O)O | 9.7 mm | 8 mm | 22.7 mm | 13.8 mm | 19.7 mm | 38 mm | 8 mm | 14 mm | 25.3 mm | 8 mm | 8 mm | 8.2 mm | 8 mm | 26 mm | 15 mm | 25 mm
9 | COc1ccc(/C=C/C=N/C(C)C(=O)O)cc1 (stereo not given) | 9 mm | 8 mm | 10.5 mm | 12.7 mm | 12.7 mm | 17.7 mm | 8 mm | 13.3 mm | 9.8 mm | 8 mm | 10 mm | 8.7 mm | 8 mm | 16.3 mm | 8 mm | 15.8 mm
10 | O=C(O)[C@H](Cc1ccccc1)/N=C/C=C/c1ccccc1 | 8 mm | 8 mm | 9.2 mm | 8.7 mm | 11 mm | 10.7 mm | 8 mm | 8 mm | 9.7 mm | 8 mm | 8 mm | 8 mm | 10 mm | 8 mm | 8 mm | 10.7 mm
11 | OC(Cn1cncn1)(Cn1cncn1)c1ccc(F)cc1F [FLUCONAZOLE] | 8 mm | – | 18.7 mm | 17.7 mm | – | 13.3 mm | – | 9.2 mm | 13 mm | 14.5 mm | – | – | – | – | – | 25 mm
12 | O=C(O)c1cn(C2CC2)c2cc(N3CCNCC3)c(F)cc2c1=O [CIPROFLOXACIN] | – | 22.3 mm | – | – | 21 mm | – | 16.7 mm | – | – | – | – | 21 mm | 16 mm | 24.3 mm | 23.3 mm | –
